Measured values reported in patent publication US10889627B2, “Pro-drug peptide with improved pharmaceutical properties” (UREKA SARL, priority 2017, dated 2021).
Like-named read-outs stand apart in the source and are kept apart here.

What was measured:
[1] = Solubility assay (Example 2, percent soluble by UV absorbance); details: PBS buffer (0.1M) at pH 7.4
Description: A solution of the compound (e.g., glucagon or analogues thereof) was prepared in a 0.01M HCl solution. Then 0.1 mL of the stock solution was diluted to 1 mL with HCl (0.01M) and the UV absorbance was measured (to 280 nm) with NanoDrop UV spectrometer (NanoDrop 1000 from Thermo Fischer Company). The pH of the remaining stock solution was adjusted to pH 7 using Na2HPO4 (0.1M) and the solution was allowed to stand overnight at 4° C. Then the solution was centrifuged three times (5 min, 4000 min^−1), 0.1 mL of the supernatant was removed and diluted to 1 mL with HCl solution (0.01M). The final UV absorbance was measured. The solubility was accessible by the following formula: (Final Absorbance/Initial Absorbance)×100=Percent Soluble

[2] = Stability assay in NaCl 0.9% aqueous solution (RP-HPLC); assay type: physicochemical; details: 1 mg/mL
Description: A solution of 1 mg/mL of peptide or peptidomimetic (glucagon or analog thereof) was prepared in a NaCl 0.9% aqueous solution and stored at room temperature, or 4° C., or 37° C. and or 50° C. The samples were analyzed by RP-HPLC on a Dionex U3000SD using a Macherey-Nagel Nucleodur C18ec column (4×100 mm, 3 μm) at a flow rate of 1 mL/min with UV detection at 200 nm. The mobile phase was composed of 0.1% (v/v) TFA-H2O (Solvent A) and 0.1% (v/v) TFA-CH3CN (Solvent B).

[3] = tested on: Wistar Rat; assay: Rat studies, blood glucose after i.v. dosing (Example 2); assay type: in vivo; details: Wistar rats, 3 hours fasting, 10 nM/kg i.v., FIGS. 12 and 13
[4] = pH 7.4

Substance | Solubility at 1 mg/mL [1] [%] | Percentage of peptide remaining ([2]; 4° C., 1 month (T0 = 100%)) [%] | Percentage of peptide remaining ([2]; 4° C., 1 week (T0 = 100%)) [%] | Percentage of peptide remaining ([2]; 4° C., 5 months (T0 = 100%)) [%] | Percentage of peptide remaining ([2]; RT, 1 month (T0 = 100%)) [%] | Percentage of peptide remaining ([2]; RT, 1 week (T0 = 100%)) [%] | Percentage of peptide remaining ([2]; RT, 5 months (T0 = 100%)) [%] | Glycogen breakdown (increased blood glucose levels) compared to glucagon [3] | Solubility at 1 mg/mL [4] [%]
K*PHSQGTFTSDYSKYLDSRRAQDFVQWLLNT-NH2 [Peptide 22] | 34 | – | – | – | – | – | – | – | –
KPKPKPHSQGTFTSDYSKYLDSRRAQDFVQWLLNT-NH2 [Peptide 14] | 77 | 99 | 99 | 97 | 97 | 99 | 87 | greater glycogen breakdown | –
EPHSQGTFTSDYSKYLDSRRAQDFVQWLLNT-NH2 [Peptide 18] | – | – | – | – | – | – | – | – | 18
